Key:
Format in all cases: in vivo
Conditions in all cases: treatment dosage 320 g/ha
corn [1] = experiment: Test Example 3: soil treatment, effect on crop; c: corn
Method in brief: (§1)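 Crop and weed responses were judged three weeks after a uniform surface spray of the water-diluted emulsion at the given g/ha rate. Seeds sat beneath about 1.5 cm of sterilized diluvial soil, and boxes stood in a greenhouse at 25 to 30° C.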

soybean [2] = experiment: Test Example 4: foliar treatment, effect on crop; d: soybean
Method in brief: (§2)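 Seeds are spot-sown into sterilized diluvial soil and covered with about 1.5 cm of soil. After 14 days' greenhouse growth at 25 to 30° C, plants are sprayed on stems and leaves with diluted emulsion at the stated g/ha rate, then scored at 3 weeks.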

common wind-grass [3] = experiment: Test Example 4: weedkilling efficacy by foliar treatment; J: common wind-grass
Method in brief: as §2

rapeseed [4] = experiment: Test Example 3: soil treatment, effect on crop; g: rapeseed
Method in brief: as §1

barnyard grass [5] = experiment: Test Example 2: weedkilling efficacy, growth period weed treatment in the submerged state; A: barnyard grass
Method in brief: (§3)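 Weeds treated at the 1-2 leaf stage by application of diluted emulsion onto floodwater (4 cm depth, alluvial soil) at specified g/ha. Grown in greenhouse at 25 to 30° C; herbicidal effect rated three weeks after treatment.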

beet [6] = experiment: Test Example 3: soil treatment, effect on crop; f: beet
Method in brief: as §1

green foxtail [7] = experiment: Test Example 3: weedkilling efficacy through soil treatment; E: green foxtail
Method in brief: as §1

barnyard grass [8] = experiment: Test Example 3: weedkilling efficacy through soil treatment; F: barnyard grass
Method in brief: as §1

green foxtail [9] = experiment: Test Example 4: weedkilling efficacy by foliar treatment; E: green foxtail
Method in brief: as §2

birds-eye speedwell [10] = experiment: Test Example 4: weedkilling efficacy by foliar treatment; p: birds-eye speedwell
Method in brief: as §2

Italian ryegrass [11] = experiment: Test Example 3: weedkilling efficacy through soil treatment; I: Italian ryegrass
Method in brief: as §1

crabgrass [12] = experiment: Test Example 3: weedkilling efficacy through soil treatment; D: crabgrass
Method in brief: as §1

oval-leafed pondweed [13] = experiment: Test Example 1: weedkilling efficacy, preemergent weed treatment in the submerged state; C: oval-leafed pondweed
Method in brief: (§4)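 Pre-emergence application onto floodwater (4 cm, alluvial soil) on the day of sowing, dose expressed as g/ha from diluted emulsion formulation. Weeds sown with 2.5-leaf transplanted rice as crop; plants held at 25–30 °C in greenhouse and scored against assessment criteria after 3 weeks.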

black-grass [14] = experiment: Test Example 3: weedkilling efficacy through soil treatment; H: black-grass
Method in brief: as §1

corn [15] = experiment: Test Example 4: foliar treatment, effect on crop; c: corn
Method in brief: as §2

barnyard grass [16] = experiment: Test Example 1: weedkilling efficacy, preemergent weed treatment in the submerged state; A: barnyard grass
Method in brief: as §4

wild oat [17] = experiment: Test Example 4: weedkilling efficacy by foliar treatment; G: wild oat
Method in brief: as §2

common wind-grass [18] = experiment: Test Example 3: weedkilling efficacy through soil treatment; J: common wind-grass
Method in brief: as §1

barnyard grass [19] = experiment: Test Example 4: weedkilling efficacy by foliar treatment; F: barnyard grass
Method in brief: as §2

redroot pigweed [20] = experiment: Test Example 4: weedkilling efficacy by foliar treatment; L: redroot pigweed
Method in brief: as §2

birds-eye speedwell [21] = experiment: Test Example 3: weedkilling efficacy through soil treatment; p: birds-eye speedwell
Method in brief: as §1

wheat [22] = experiment: Test Example 4: foliar treatment, effect on crop; e: wheat
Method in brief: as §2

Indian mallow [23] = experiment: Test Example 3: weedkilling efficacy through soil treatment; K: Indian mallow
Method in brief: as §1

directly sown rice [24] = experiment: Test Example 4: foliar treatment, effect on crop; b: directly sown rice
Method in brief: as §2

bulrush [25] = experiment: Test Example 1: weedkilling efficacy, preemergent weed treatment in the submerged state; B: bulrush
Method in brief: as §4

black-grass [26] = experiment: Test Example 4: weedkilling efficacy by foliar treatment; H: black-grass
Method in brief: as §2

redroot pigweed [27] = experiment: Test Example 3: weedkilling efficacy through soil treatment; L: redroot pigweed
Method in brief: as §1

chickweed [28] = experiment: Test Example 4: weedkilling efficacy by foliar treatment; N: chickweed
Method in brief: as §2

soybean [29] = experiment: Test Example 3: soil treatment, effect on crop; d: soybean
Method in brief: as §1

transplanted rice = experiment: Test Example 1: preemergent weed treatment in the submerged state, effect on crop; a: transplanted rice
Method in brief: as §4

wild oat [30] = experiment: Test Example 3: weedkilling efficacy through soil treatment; G: wild oat
Method in brief: as §1

directly sown rice [31] = experiment: Test Example 3: soil treatment, effect on crop; b: directly sown rice
Method in brief: as §1

catchweed [32] = experiment: Test Example 4: weedkilling efficacy by foliar treatment; O: catchweed
Method in brief: as §2

fig-leafed goosefoot [33] = experiment: Test Example 4: weedkilling efficacy by foliar treatment; M: fig-leafed goosefoot
Method in brief: as §2

Indian mallow [34] = experiment: Test Example 4: weedkilling efficacy by foliar treatment; K: Indian mallow
Method in brief: as §2

beet [35] = experiment: Test Example 4: foliar treatment, effect on crop; f: beet
Method in brief: as §2

rapeseed [36] = experiment: Test Example 4: foliar treatment, effect on crop; g: rapeseed
Method in brief: as §2

wheat [37] = experiment: Test Example 3: soil treatment, effect on crop; e: wheat
Method in brief: as §1

oval-leafed pondweed [38] = experiment: Test Example 2: weedkilling efficacy, growth period weed treatment in the submerged state; C: oval-leafed pondweed
Method in brief: as §3

bulrush [39] = experiment: Test Example 2: weedkilling efficacy, growth period weed treatment in the submerged state; B: bulrush
Method in brief: as §3

catchweed [40] = experiment: Test Example 3: weedkilling efficacy through soil treatment; O: catchweed
Method in brief: as §1

chickweed [41] = experiment: Test Example 3: weedkilling efficacy through soil treatment; N: chickweed
Method in brief: as §1

Italian ryegrass [42] = experiment: Test Example 4: weedkilling efficacy by foliar treatment; I: Italian ryegrass
Method in brief: as §2

fig-leafed goosefoot [43] = experiment: Test Example 3: weedkilling efficacy through soil treatment; M: fig-leafed goosefoot
Method in brief: as §1

crabgrass [44] = experiment: Test Example 4: weedkilling efficacy by foliar treatment; D: crabgrass
Method in brief: as §2

CC1=C(c2ccccc2)C(=O)N(C(C)(C)C(=O)Nc2cc(C#N)ccn2)CO1 [B-2-62]
c (corn) effect on crop grade (corn [1]): 0 (weed kill ratio 5% or less (practically no effect)) | d (soybean) effect on crop grade (soybean [2]): 0 (weed kill ratio 5% or less (practically no effect)) | J (common wind-grass) weedkilling efficacy grade (common wind-grass [3]): 4 (weed kill ratio 70% or more, less than 90%) | g (rapeseed) effect on crop grade (rapeseed [4]): 0 (weed kill ratio 5% or less (practically no effect)) | A (barnyard grass) weedkilling efficacy grade (barnyard grass [5]): 4 (weed kill ratio 70% or more, less than 90%) | f (beet) effect on crop grade (beet [6]): 0 (weed kill ratio 5% or less (practically no effect)) | E (green foxtail) weedkilling efficacy grade (green foxtail [7]): 4 (weed kill ratio 70% or more, less than 90%) | F (barnyard grass) weedkilling efficacy grade (barnyard grass [8]): 3 (weed kill ratio 40% or more, less than 70%) | E (green foxtail) weedkilling efficacy grade (green foxtail [9]): 3 (weed kill ratio 40% or more, less than 70%) | P (birds-eye speedwell) weedkilling efficacy grade (birds-eye speedwell [10]): 4 (weed kill ratio 70% or more, less than 90%) | I (Italian ryegrass) weedkilling efficacy grade (Italian ryegrass [11]): 4 (weed kill ratio 70% or more, less than 90%) | D (crabgrass) weedkilling efficacy grade (crabgrass [12]): 4 (weed kill ratio 70% or more, less than 90%) | C (oval-leafed pondweed) weedkilling efficacy grade (oval-leafed pondweed [13]): 5 (weed kill ratio 90% or more, (practically complete withering)) | H (black-grass) weedkilling efficacy grade (black-grass [14]): 3 (weed kill ratio 40% or more, less than 70%) | c (corn) effect on crop grade (corn [15]): 0 (weed kill ratio 5% or less (practically no effect)) | A (barnyard grass) weedkilling efficacy grade (barnyard grass [16]): 5 (weed kill ratio 90% or more, (practically complete withering)) | G (wild oat) weedkilling efficacy grade (wild oat [17]): 1 (weed kill ratio 5% or more, less than 20%) | J (common wind-grass) weedkilling efficacy grade (common wind-grass [18]): 5 (weed kill ratio 90% or more, (practically complete withering)) | F (barnyard grass) weedkilling efficacy grade (barnyard grass [19]): 3 (weed kill ratio 40% or more, less than 70%) | L (redroot pigweed) weedkilling efficacy grade (redroot pigweed [20]): 4 (weed kill ratio 70% or more, less than 90%) | P (birds-eye speedwell) weedkilling efficacy grade (birds-eye speedwell [21]): 4 (weed kill ratio 70% or more, less than 90%) | e (wheat) effect on crop grade (wheat [22]): 0 (weed kill ratio 5% or less (practically no effect)) | K (Indian mallow) weedkilling efficacy grade (Indian mallow [23]): 0 (weed kill ratio 5% or less (practically no effect)) | b (directly sown rice) effect on crop grade (directly sown rice [24]): 0 (weed kill ratio 5% or less (practically no effect)) | B (bulrush) weedkilling efficacy grade (bulrush [25]): 5 (weed kill ratio 90% or more, (practically complete withering)) | H (black-grass) weedkilling efficacy grade (black-grass [26]): 3 (weed kill ratio 40% or more, less than 70%) | L (redroot pigweed) weedkilling efficacy grade (redroot pigweed [27]): 2 (weed kill ratio 20% or more, less than 40%) | N (chickweed) weedkilling efficacy grade (chickweed [28]): 2 (weed kill ratio 20% or more, less than 40%) | d (soybean) effect on crop grade (soybean [29]): 0 (weed kill ratio 5% or less (practically no effect)) | a (transplanted rice) effect on crop grade (transplanted rice): 1 (weed kill ratio 5% or more, less than 20%) | G (wild oat) weedkilling efficacy grade (wild oat [30]): 3 (weed kill ratio 40% or more, less than 70%) | b (directly sown rice) effect on crop grade (directly sown rice [31]): 0 (weed kill ratio 5% or less (practically no effect)) | O (catchweed) weedkilling efficacy grade (catchweed [32]): 1 (weed kill ratio 5% or more, less than 20%) | M (fig-leafed goosefoot) weedkilling efficacy grade (fig-leafed goosefoot [33]): 3 (weed kill ratio 40% or more, less than 70%) | K (Indian mallow) weedkilling efficacy grade (Indian mallow [34]): 4 (weed kill ratio 70% or more, less than 90%) | f (beet) effect on crop grade (beet [35]): 0 (weed kill ratio 5% or less (practically no effect)) | g (rapeseed) effect on crop grade (rapeseed [36]): 4 (weed kill ratio 70% or more, less than 90%) | e (wheat) effect on crop grade (wheat [37]): 0 (weed kill ratio 5% or less (practically no effect)) | C (oval-leafed pondweed) weedkilling efficacy grade (oval-leafed pondweed [38]): 5 (weed kill ratio 90% or more, (practically complete withering)) | B (bulrush) weedkilling efficacy grade (bulrush [39]): 3 (weed kill ratio 40% or more, less than 70%) | O (catchweed) weedkilling efficacy grade (catchweed [40]): 0 (weed kill ratio 5% or less (practically no effect)) | N (chickweed) weedkilling efficacy grade (chickweed [41]): 3 (weed kill ratio 40% or more, less than 70%) | I (Italian ryegrass) weedkilling efficacy grade (Italian ryegrass [42]): 2 (weed kill ratio 20% or more, less than 40%) | M (fig-leafed goosefoot) weedkilling efficacy grade (fig-leafed goosefoot [43]): 3 (weed kill ratio 40% or more, less than 70%) | D (crabgrass) weedkilling efficacy grade (crabgrass [44]): 3 (weed kill ratio 40% or more, less than 70%)

From patent US9738634B2, “Heterocyclic amide compound and herbicide” (SYNGENTA PARTICIPATIONS AG, priority 2013, dated 2017)
